In brackets after ≈: the same amount, converted by molar mass. Like-named read-outs stand apart in the source and are kept apart here.
Tests used:
[1] = tested on: Acinetobacter spp. H064200250; assay: MIC determination for Acinetobacter strains (Example 3); type: cell-based, Acinetobacter sp.; conditions: LEV R, CIP R, MRP R, IMP I
A. baumannii A489 = assay: MIC without and with sub-inhibitory polymyxin B (Example 4); type: cell-based, Acinetobacter baumannii; conditions: for MIC +[…] PB / MIC without PB/MIC + PB: A. baumannii A489; for MIC +[…] PB: +[…] polymyxin B; for MIC without PB/MIC + PB: ratio; for MIC: Acinetobacter baumannii, A489, A. baumannii A489, without polymyxin B, read-out: MIC without PB
A. baumannii A401 [2] = assay: as above; type: cell-based, Acinetobacter baumannii; conditions: for MIC +0.06 μg/ml PB: +0.06 μg/ml polymyxin B; for MIC: Acinetobacter baumannii, A401, A baumannii A 401, without polymyxin B, read-out: MIC without PB
A. baumannii J2 [3] = assay: Preliminary MBC without and with sub-inhibitory polymyxin B (Example 4); type: cell-based, Acinetobacter baumannii; conditions: preliminary MBC; for MBC +[…] PB: A. baumannii J2, +[…] polymyxin B; for MBC: Acinetobacter baumannii, J2, A. baumannii J2, without polymyxin B, read-out: MBC without PB
A. baumannii A390 = assay: as above; type: cell-based, Acinetobacter baumannii; conditions: preliminary MBC; for MBC: Acinetobacter baumannii, A390, A. baumannii A390, without polymyxin B, read-out: MBC without PB
A. baumannii J2 [4] = assay: MIC without and with sub-inhibitory polymyxin B (Example 4); type: cell-based, Acinetobacter baumannii; conditions: for MIC +[…] PB / MIC without PB/MIC + PB: A. baumannii J2; for MIC +[…] PB: +[…] polymyxin B; for MIC without PB/MIC + PB: ratio; for MIC: Acinetobacter baumannii, J2, A. baumannii J2, without polymyxin B
A. baumannii A329 = assay: as above; type: cell-based, Acinetobacter baumannii; conditions: for MIC: Acinetobacter baumannii, A329, A. baumannii A329, without polymyxin B, read-out: MIC without PB
A. baumannii A473 = assay: Preliminary MBC without and with sub-inhibitory polymyxin B (Example 4); type: cell-based, Acinetobacter baumannii; conditions: for MBC: Acinetobacter baumannii, A473, A. baumannii A473, without polymyxin B, read-out: MBC without PB
A. baumannii A401 [5] = assay: as above; type: cell-based, Acinetobacter baumannii; conditions: preliminary MBC; for MBC +0.06 μg/ml PB: A baumannii A 401, +0.06 μg/ml polymyxin B; for MBC: Acinetobacter baumannii, A401, A baumannii A 401, without polymyxin B, read-out: MBC without PB
A. baumannii A472 = assay: MIC without and with sub-inhibitory polymyxin B (Example 4); type: cell-based, Acinetobacter baumannii; conditions: A. baumannii A472, +[…] polymyxin B

MIC [1]: 16 µg/mL (≈ 53.4 µM)
MIC +[…] PB (A. baumannii A489; 1st experiment): 2 µg/mL (≈ 6.68 µM)
MIC +[…] PB (A. baumannii A489; 2nd experiment, visual reading): 0.25 µg/mL (≈ 0.835 µM)
MIC without PB/MIC + PB (A. baumannii A489; 1st experiment): 64
MIC without PB/MIC + PB (A. baumannii A489; 2nd experiment): 256
MIC (A. baumannii A489; 1st experiment): 128 µg/mL (≈ 428 µM)
MIC (A. baumannii A489; 2nd experiment, visual reading): 64 µg/mL (≈ 214 µM)
MIC +0.06 μg/ml PB (A. baumannii A401 [2]; A baumannii A 401, 1st experiment): 8 µg/mL
MIC +0.06 μg/ml PB (A. baumannii A401 [2]; A baumannii A 401, 2nd experiment, visual reading): 4 µg/mL
MIC ratio without/with polymyxin B (A. baumannii A401 [2]; A baumannii A 401, ratio MIC without PB to MIC + PB, PB 0.06 μg/ml, 2nd experiment): 8 µg/mL
MIC without PB/MIC + PB (A. baumannii A401 [2]; A baumannii A 401, ratio, PB 0.06 μg/ml, 1st experiment): 4
MIC (A. baumannii A401 [2]; 1st experiment): 32 µg/mL (≈ 107 µM)
MIC (A. baumannii A401 [2]; 2nd experiment, visual reading): 32 µg/mL (≈ 107 µM)
MIC +[…] PB (A. baumannii J2 [4]; 1st experiment): ≤0.125 µg/mL
MIC +[…] PB (A. baumannii J2 [4]; 2nd experiment, visual reading): ≤0.125 µg/mL
MIC without PB/MIC + PB (A. baumannii J2 [4]; 1st experiment): ≥32
MIC without PB/MIC + PB (A. baumannii J2 [4]; 2nd experiment): ≥64
MIC (A. baumannii J2 [4]; 1st experiment, read-out: MIC without PB): 4 µg/mL (≈ 13.4 µM)
MIC (A. baumannii J2 [4]; 2nd experiment, MIC read with alamar blue, read-out: MIC without PB, read with alamar blue): 4 µg/mL (≈ 13.4 µM)
MIC (A. baumannii J2 [4]; 2nd experiment, visual reading, read-out: MIC without PB): 8 µg/mL (≈ 26.7 µM)
MIC +0.06 μg/ml PB (A. baumannii A329; A. baumannii A329, +0.06 μg/ml polymyxin B, 2nd experiment, visual reading): 128 µg/mL
MIC without PB/MIC + PB (A. baumannii A329; A. baumannii A329, ratio, PB 0.06 μg/ml, 2nd experiment): ≥1
MIC (A. baumannii A329; 1st experiment): 128 µg/mL (≈ 428 µM)
MIC (A. baumannii A329; 2nd experiment, visual reading): > 128 µg/mL
MIC +[…] PB (A. baumannii A472; 1st experiment): 0.25 µg/mL (≈ 0.835 µM)
MIC +[…] PB (A. baumannii A472; 2nd experiment, visual reading): 0.25 µg/mL (≈ 0.835 µM)
SMILES: C[C@@H](O)[C@H]1C(=O)N2C(C(=O)O)=C(SCCN=CN)C[C@H]12 [Imipenem, reference compound]
MBC +[…] PB (A. baumannii J2 [3]; 2nd experiment): ≤0.125 µg/mL
MBC +[…] PB (A. baumannii J2 [3]; 1st experiment): ≤0.125 µg/mL
MBC (A. baumannii J2 [3]; 2nd experiment): 8 µg/mL (≈ 26.7 µM)
MBC (A. baumannii J2 [3]; 1st experiment): 4 µg/mL (≈ 13.4 µM)
MBC +0.06 μg/ml PB (A. baumannii A390; A. baumannii A390, +0.06 μg/ml polymyxin B, 2nd experiment): 4 µg/mL
MBC (A. baumannii A390; 2nd experiment): 16 µg/mL (≈ 53.4 µM)
MBC (A. baumannii A390; 1st experiment): 16 µg/mL (≈ 53.4 µM)
MBC +0.06 μg/ml PB (A. baumannii A473; A. baumannii A473, +0.06 μg/ml polymyxin B, 2nd experiment): 4 µg/mL
MBC (A. baumannii A473; 1st experiment): 32 µg/mL (≈ 107 µM)
MBC (A. baumannii A473; 2nd experiment): 32 µg/mL (≈ 107 µM)
MBC +0.06 μg/ml PB (A. baumannii A401 [5]; 2nd experiment): 4 µg/mL
MBC +0.06 μg/ml PB (A. baumannii A401 [5]; 1st experiment): 8 µg/mL
MBC (A. baumannii A401 [5]; 2nd experiment): 32 µg/mL (≈ 107 µM)
MBC (A. baumannii A401 [5]; 1st experiment): 32 µg/mL (≈ 107 µM)

Source: patent US10155021B2, “Antimicrobial 4-oxoquinolizines” (Emergent Product Development Gaithersburg Inc., priority 2011, dated 2018)
